Data from PubChem BioAssay AID330 (DTP/NCI, 2004).
“And” between values parts separate entries of the source, which are not always exact repeats. Equal entries are not always repeated. Toxic doses and inconclusive results are not listed. Rule for the calls: active = survival T/C of 150% or more; inactive = T/C below 125% in these data. Peptide text beside a SMILES is read from it.

System: P388 leukemia ip, CD2F1 mice, survival T/C
Experiment: NCI In Vivo Anticancer Drug Screen. Data for tumor model P388 Leukemia (intraperitoneal) in CD2F1 (CDF1) mice
Conditions: endpoint: median survival time, higher = longer survival
Method in brief: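 Mice carrying the transplanted tumor received test compound or vehicle. Survival was recorded in each group, and the value is the treated-group measurement divided by that of the vehicle-treated control group.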

[1] = dose: 50.0 mg/kg/injection, schedule: Q01DX009 (ip), vehicle: saline
[2] = dose: 100.0 mg/kg/injection, schedule: Q01DX009 (ip), vehicle: saline
[3] = dose: 200.0 mg/kg/injection, schedule: Q01DX009 (ip), vehicle: saline
[4] = dose: 25.0 mg/kg/injection, schedule: Q01DX009 (ip), vehicle: saline with Tween-80
[5] = dose: 50.0 mg/kg/injection, schedule: Q01DX009 (ip), vehicle: saline with Tween-80
[6] = dose: 100.0 mg/kg/injection, schedule: Q01DX009 (ip), vehicle: saline with Tween-80
[7] = dose: 100.0 mg/kg/injection, schedule: Q04DX003 (ip), vehicle: saline with Tween-80

Measured: T/C

CC(=O)OC1(C)CC(C)C(=O)C(C(O)CC2CC(=O)NC(=O)C2)C1 (stereo not drawn)
inactive: dose: 130.0 micrograms/kg/injection, schedule: Q01DX009 (ip), vehicle: saline 111 % of control | dose: 1300.0 micrograms/kg/injection, schedule: Q04DX003 (ip), vehicle: saline 120 % of control | dose: 2160.0 micrograms/kg/injection, schedule: Q04DX003 (ip), vehicle: saline 113 % of control | dose: 3600.0 micrograms/kg/injection, schedule: Q04DX003 (ip), vehicle: saline 113 % of control and 119 % of control | dose: 6000.0 micrograms/kg/injection, schedule: Q04DX003 (ip), vehicle: saline 118 % of control

CC(N=c1ccccn1O)C(O)c1ccccc1 (stereo not drawn)
inactive: [1] 101 % of control | [2] 97 % of control | [3] 97 % of control

Cc1ccc(-c2cn3ccsc3n2)cc1
inactive: dose: 100.0 mg/kg/injection, schedule: Q01DX001 (ip), vehicle: Klucel (hydroxypropylcellulose) (HPC) 95 % of control | dose: 200.0 mg/kg/injection, schedule: Q01DX001 (ip), vehicle: Klucel (hydroxypropylcellulose) (HPC) 97 % of control

O=c1oc(-c2ccc([N+](=O)[O-])cc2Cl)nc2ccccc12
inactive: [1] 106 % of control | [2] 105 % of control | [3] 106 % of control

Oc1cc2c(cc1C(c1ccc(F)cc1)N1CCCC1)OCO2 (stereo not drawn)
inactive: dose: 60.0 mg/kg/injection, schedule: Q01DX005 (ip), vehicle: Klucel (hydroxypropylcellulose) (HPC) 109 % of control | dose: 120.0 mg/kg/injection, schedule: Q01DX005 (ip), vehicle: Klucel (hydroxypropylcellulose) (HPC) 111 % of control | dose: 240.0 mg/kg/injection, schedule: Q01DX005 (ip), vehicle: Klucel (hydroxypropylcellulose) (HPC) 111 % of control

N#CC(=C1C=CC(=NO)C=C1)c1ccccc1
inactive: dose: 200.0 mg/kg/injection, schedule: Q01DX009 (ip), vehicle: saline with Tween-80 115 % of control

CC(C)C(NC(=O)C(N)CCCCN)C(=O)O (stereo not drawn) (H-Lys-Val-OH; configuration not given here)
inactive: dose: 100.0 mg/kg/injection, schedule: Q04DX003 (ip), vehicle: saline 96 % of control | dose: 200.0 mg/kg/injection, schedule: Q04DX003 (ip), vehicle: saline 97 % of control | dose: 400.0 mg/kg/injection, schedule: Q04DX003 (ip), vehicle: saline 97 % of control

COC1OC2COC(c3ccccc3)OC2C(O)C1N (stereo not drawn)
inactive: [4] 112 % of control | dose: 25.0 mg/kg/injection, schedule: Q04DX003 (ip), vehicle: saline with Tween-80 100 % of control | [5] 95 % of control | dose: 50.0 mg/kg/injection, schedule: Q04DX003 (ip), vehicle: saline with Tween-80 100 % of control | [6] 104 % of control | [7] 100 % of control

COc1cc(CC2C(=O)OCC2Cc2cc(OC)c(O)c(C(CO)C(O)c3ccc(O)c(OC)c3)c2)ccc1O (stereo not drawn)
inactive: dose: 5.0 mg/kg/injection, schedule: Q01DX009 (ip), vehicle: saline 96 % of control | dose: 10.0 mg/kg/injection, schedule: Q01DX009 (ip), vehicle: saline 107 % of control | dose: 20.0 mg/kg/injection, schedule: Q01DX009 (ip), vehicle: saline 105 % of control | dose: 40.0 mg/kg/injection, schedule: Q01DX009 (ip), vehicle: saline 102 % of control

COCCC(=NC(C)(C)C)Nc1c(Cl)cccc1Cl
inactive: [1] 110 % of control | [2] 108 % of control

CCOC(=O)C1C(c2ccc(C)cc2)C(C#N)C(=O)NC1(O)c1ccccc1 (stereo not drawn)
inactive: dose: 100.0 mg/kg/injection, schedule: Q04DX002 (ip), vehicle: Klucel (hydroxypropylcellulose) (HPC) 99 % of control | dose: 200.0 mg/kg/injection, schedule: Q04DX002 (ip), vehicle: Klucel (hydroxypropylcellulose) (HPC) 95 % of control | dose: 400.0 mg/kg/injection, schedule: Q04DX002 (ip), vehicle: Klucel (hydroxypropylcellulose) (HPC) 98 % of control

COc1ccc(/C=C2/Oc3c(Br)c(OC)cc(OC)c3C2=O)cc1
inactive: dose: 25.0 mg/kg/injection, schedule: Q01DX005 (ip), vehicle: Klucel (hydroxypropylcellulose) (HPC) 98 % of control | dose: 50.0 mg/kg/injection, schedule: Q01DX005 (ip), vehicle: Klucel (hydroxypropylcellulose) (HPC) 98 % of control | dose: 100.0 mg/kg/injection, schedule: Q01DX005 (ip), vehicle: Klucel (hydroxypropylcellulose) (HPC) 96 % of control | dose: 200.0 mg/kg/injection, schedule: Q01DX005 (ip), vehicle: Klucel (hydroxypropylcellulose) (HPC) 97 % of control

NC(CO)C(O)c1ccc(N=Nc2ccc(O)cc2)cc1 (stereo not drawn)
inactive: [4] 95 % of control | [5] 100 % of control | [6] 95 % of control

NC(=O)CC1OC(=O)Cc2cc3c(c(O)c21)C(=O)c1c(O)cccc1C3=O (stereo not drawn)
inactive: dose: 0.75 mg/kg/injection, schedule: Q01DX009 (ip), vehicle: DMSO 109 % of control | dose: 1.5 mg/kg/injection, schedule: Q01DX009 (ip), vehicle: DMSO 107 % of control | dose: 3.0 mg/kg/injection, schedule: Q01DX009 (ip), vehicle: DMSO 107 % of control | dose: 6.0 mg/kg/injection, schedule: Q01DX009 (ip), vehicle: DMSO 107 % of control

O=c1n(-c2ccccc2)c(=O)n2n1C1C=CC2C23C=CC12CCCC3 (stereo not drawn)
inactive: dose: 100.0 mg/kg/injection, schedule: Q04DX003 (ip), vehicle: Klucel (hydroxypropylcellulose) (HPC) 96 % of control | dose: 200.0 mg/kg/injection, schedule: Q04DX003 (ip), vehicle: Klucel (hydroxypropylcellulose) (HPC) 96 % of control | dose: 400.0 mg/kg/injection, schedule: Q04DX003 (ip), vehicle: Klucel (hydroxypropylcellulose) (HPC) 96 % of control

CCCSC(=O)Nc1cc(OC)ccc1OC
inactive: dose: 60.0 mg/kg/injection, schedule: Q01DX005 (ip), vehicle: saline with Tween-80 98 % of control | dose: 120.0 mg/kg/injection, schedule: Q01DX005 (ip), vehicle: saline with Tween-80 98 % of control | dose: 240.0 mg/kg/injection, schedule: Q01DX005 (ip), vehicle: saline with Tween-80 104 % of control

COC[n+]1cccc(C2CCC[N+]2(C)C)c1 (stereo not drawn)
inactive: [1] 101 % of control | [2] 107 % of control | [3] 114 % of control

OC(CCl)COn1nnc2ccccc21 (stereo not drawn)
inactive: dose: 25.0 mg/kg/injection, schedule: Q01DX005 (ip), vehicle: saline with Tween-80 100 % of control | dose: 50.0 mg/kg/injection, schedule: Q01DX005 (ip), vehicle: saline with Tween-80 102 % of control | dose: 100.0 mg/kg/injection, schedule: Q01DX005 (ip), vehicle: saline with Tween-80 100 % of control | [7] 98 % of control | dose: 200.0 mg/kg/injection, schedule: Q04DX003 (ip), vehicle: saline with Tween-80 99 % of control | dose: 400.0 mg/kg/injection, schedule: Q04DX003 (ip), vehicle: saline with Tween-80 94 % of control

CCCC(=O)N1CCCCC1CC (stereo not drawn)
inactive: dose: 100.0 mg/kg/injection, schedule: Q01DX001 (ip), vehicle: saline 100 % of control | dose: 200.0 mg/kg/injection, schedule: Q01DX001 (ip), vehicle: saline 102 % of control

CCCCCCCCCCCC(=O)OCCN(CCOC(=O)CCCCCCCCCCC)C(=O)COC(=O)CCCCCCCCCCC
inactive: dose: 6.25 mg/kg/injection, schedule: Q01DX009 (ip), vehicle: saline with Tween-80 96 % of control | dose: 12.5 mg/kg/injection, schedule: Q01DX009 (ip), vehicle: saline with Tween-80 98 % of control | [4] 100 % of control | dose: 100.0 mg/kg/injection, schedule: Q01DX009 (ip), vehicle: saline + Tween-80 + alcohol 111 % of control | dose: 200.0 mg/kg/injection, schedule: Q01DX009 (ip), vehicle: saline + Tween-80 + alcohol 107 % of control
